Measurements published in patent US7186743B2, “Substituted pyrazolyl compounds for the treatment of inflammation” (Pharmacia Corporation, priority 2001, dated 2007).
Counter-ions that a name gives are not always drawn. Like-named read-outs stand apart in the source and are kept apart here.

Target: T1, IKK2 (Homo sapiens, UniProt O14920)
T1 construct: made in house; host or cells: insect cells (baculovirus, pFastBac; SF9)
T1 sequence (O14920 1-756): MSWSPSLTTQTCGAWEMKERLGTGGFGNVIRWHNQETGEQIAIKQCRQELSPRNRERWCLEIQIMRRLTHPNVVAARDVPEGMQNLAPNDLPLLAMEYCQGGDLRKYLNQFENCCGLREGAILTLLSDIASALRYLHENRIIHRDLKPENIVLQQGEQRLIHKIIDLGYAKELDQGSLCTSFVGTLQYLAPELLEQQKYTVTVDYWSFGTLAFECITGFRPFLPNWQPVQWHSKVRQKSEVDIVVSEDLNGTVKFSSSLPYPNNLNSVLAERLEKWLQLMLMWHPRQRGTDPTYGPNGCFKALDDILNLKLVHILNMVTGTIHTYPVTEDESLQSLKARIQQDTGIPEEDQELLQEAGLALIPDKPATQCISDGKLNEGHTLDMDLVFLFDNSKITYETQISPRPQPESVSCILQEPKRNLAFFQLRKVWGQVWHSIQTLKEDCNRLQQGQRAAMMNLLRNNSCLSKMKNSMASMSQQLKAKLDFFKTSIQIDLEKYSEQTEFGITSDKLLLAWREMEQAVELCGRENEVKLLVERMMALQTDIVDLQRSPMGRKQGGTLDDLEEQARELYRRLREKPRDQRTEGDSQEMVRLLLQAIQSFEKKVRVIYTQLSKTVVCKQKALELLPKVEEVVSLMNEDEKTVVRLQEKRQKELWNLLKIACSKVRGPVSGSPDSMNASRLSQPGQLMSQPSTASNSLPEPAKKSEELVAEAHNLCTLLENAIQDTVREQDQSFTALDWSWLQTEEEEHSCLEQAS
Assay: IKKβ Resin Enzyme Assay (IKK2 resin)
Type: biochemical
From the text: cDNAs of human IKK1 and IKK2 were amplified by reverse transcriptase-polymerase chain reaction from human placental RNA (Clonetech). hIKK1 was subcloned into pFastBac HTa (Life Technologies) and expressed as N-terminal His6-tagged fusion protein. The hIKK2 cDNA was amplified using a reverse oligonucleotide primer which incorporated the peptide sequence for a FLAG-epitope tag at the C-terminus of the IKK2 coding region ([…]). The hIKK2:FLAG cDNA was subcloned into the baculovirus vector pFastBac. The rhIKK2 ([…]) mutant was constructed in the same vector used for wild type rhIKK2 using a QuikChange™ mutagenesis kit (Stratagene). Viral stocks of each construct were used to infect insect cells grown in 40 L suspension culture. […] Cell lysates were stored at −80° C. until purification of the recombinant proteins was undertaken as described below.
A 10-liter culture of baculovirus-expressing IKK2 tagged with FLAG peptide was centrifuged and the cell pellet (MOI=0.1 and I=72 hrs) was re-suspended in buffer A. These cells were microfluidized, and centrifuged at 100,000×g for 45 min. Supernatant was passed over a G-25 column equilibrated with Buffer A. Protein peak was collected and incubated with anti-FLAG affinity resin on a rotator overnight in buffer B. The resin was washed in batch with 10–15 bed volumes of buffer C. Washed resin was poured into a column and rhIKK2 homodimer was eluted using 5 bed volumes of buffer B containing FLAG peptide. 5 mM DTT, 0.1% NP-40 and BSA (concentrated to 0.1% in final amount) was added to the eluted enzyme before concentrating in using an Amicon membrane with a molecular weight cut-off of 30 kDa. Enzyme was aliquoted and stored at −80° C.
IKKβ kinase activity was measured using a biotinylated IκBα peptide ([…]32-Gly-Leu-Asp-Ser36-Met-Lys-Asp-Glu-Glu) (American Peptide Co.). […] ATP (Amersham) (about 1×10^5 cpm), 1 μM ATP (Sigma), 1 mM DTT (Sigma), 2 mM MgCl2 (Sigma), 2 mM MnCl2 (Sigma), 10 mM NaF (Sigma), 25 mM Hepes (Sigma) buffer, pH 7.6 and 20 μl enzyme solution and 10 ul inhibitor in a final volume of 50 μl. After incubation at 25° C. for 30 min, 150 μl resin (Dowex anion-exchange resin AG1X8 200–400 mesh) in 900 mM formate, pH 3.0 was added to each well to stop the reaction. Resin was allowed to settle for one hour and 50 ul of supernatant was removed to a Micolite-2 flat bottom plate (Dynex). 150 μl of scintillation fluid (Microscint 40) (Packard) was added to each well. Incorporation of [γ-^33P] ATP was measured using a Top-Count NXT (Packard).

[1] = Table 6, read-out: IKK2 Resin IC 50
[2] = Table 3, read-out: IKK Resin IC50
[3] = Table 14, read-out: IKK2 Resin IC50
[4] = Table 11, read-out: IKK2 Resin IC50
[5] = Table 10, read-out: IKK2 Resin IC50
[6] = Table 2, read-out: IKK Resin IC50

SMILES: NC(=O)c1nn(-c2ccc(F)cc2)c2c1CCc1ccc(NC(=O)c3ccncc3Cl)cc1-2 [Example 228, 8-[(3-chloroisonicotinoyl)amino]1-(4-fluorophenyl)-4,5-dihydro-1H-benzo[g]indazole-3-carboxamide hydrochloride]
- IC50 [1]: ≤ 1000 nM

SMILES: CN1CCN(c2ccc(Cl)c(C(=O)Nc3ccc4c(c3)-c3c(c(C(N)=O)nn3-c3ccc5c(c3)OCO5)CC4)n2)CC1 [Example 217, 1-(1,3-benzodioxol-5-yl)-8-({[3-chloro-6-(4-methylpiperazin-1-yl)pyridin-2-yl]carbonyl}amino)-4,5-dihydro-1H-benzo[g]indazole-3-carboxamide]
- IC50 (Table 5, read-out: IKK2 Resin Avg. IC50): ≤ 1000 nM

SMILES: CS(=O)(=O)c1ccc(-n2nc(C(N)=O)c3c2-c2cc(NC(=O)c4cc(Cl)ccc4[N+](=O)[O-])ccc2CC3)cc1 [Example 139, 8-[(5-chloro-2-nitrobenzoyl)amino]-1-[4-(methylsulfonyl)phenyl]-4,5-dihydro-1H-benzo[g]indazole-3-carboxamide]
- IC50 [2]: ≤ 1000 nM

SMILES: NC(=O)c1nn(-c2cc(F)cc(F)c2)c2c1CCc1ccc(NC(=O)c3ccncc3Cl)cc1-2 [Example 355, 8-[(3-chloroisonicotinoyl)amino]-1-(3,5-difluorophenyl)-4,5-dihydro-1H-benzo[g]indazole-3-carboxamide]
- IC50 [3]: ≤ 1000 nM

SMILES: CC1(C)Cc2c(C(N)=O)nn(-c3ccc4c(c3)OCO4)c2-c2cc(NC(=O)c3cccnc3Cl)ccc21 [Example 434, 1-(1,3-benzodioxol-5-yl)-8-{[(2-chloropyridin-3-yl)carbonyl]amino}-5,5-dimethyl-4,5-dihydro-1H-benzo[g]indazole-3-carboxamide]
- IC50 (Table 22, read-out: IKK2 Resin IC50): ≤ 1000 nM

SMILES: NC(=O)c1nn(-c2ccc(F)c(F)c2)c2c1CCc1ccc(NC(=O)c3cccnc3Cl)cc1-2 [Example 364, 8-{[(2-chloropyridin-3-yl)carbonyl]amino}-1-(3,4-difluorophenyl)-4,5-dihydro-1H-benzo[g]indazole-3-carboxamide]
- IC50 [3]: ≤ 1000 nM

SMILES: CS(=O)(=O)/C=C/c1ccc(-n2nc(C(N)=O)c3c2-c2cc(NC(=O)c4ccccc4Cl)ccc2CC3)cc1 [Example 297, 8-[(2-chlorobenzoyl)amino]-1-{4-[(E)-2-(methylsulfonyl)ethenyl]phenyl}-4,5-dihydro-1H-benzo[g]indazole-3-carboxamide]
- IC50 [4]: ≤ 1000 nM

SMILES: Cc1ccnc(Cl)c1C(=O)Nc1ccc2c(c1)-c1c(c(C(N)=O)nn1-c1cccc(O)c1)CC2 [Example 287, 8-{[(2-chloro-4-methylpyridin-3-yl)carbonyl]amino}-1-(3-hydroxyphenyl)-4,5-dihydro-1H-benzo[g]indazole-3-carboxamide]
- IC50 [5]: ≤ 1000 nM

SMILES: CC(=O)CCc1ccc(-n2nc(C(N)=O)c3c2-c2cc(NC(=O)c4cccnc4Cl)ccc2CC3)cc1 [Example 302, 8-{[(2-chloropyridin-3-yl)carbonyl]amino}-1-[4-(3-oxobutyl)phenyl]-4,5-dihydro-1H-benzo[g]indazole-3-carboxamide]
- IC50 [4]: ≤ 1000 nM

SMILES: CS(=O)(=O)c1ccc(-n2nc(C(N)=O)c3c2-c2cc(NC(=O)c4ccccc4Cl)ccc2CC3)nc1 [Example 367, 8-[(2-chlorobenzoyl)amino]-1-[5-(methylsulfonyl)pyridin-2-yl]-4,5-dihydro-1H-benzo[g]indazole-3-carboxamide]
- IC50 (read-out: IKK-2 resin IC50): ≤ 1000 nM

SMILES: CS(=O)(=O)c1ccc(-n2nc(C(N)=O)c3c2-c2cc(NC(=O)c4ccccc4C(F)(F)F)ccc2CC3)cc1 [Example 93, 1-[4-(methylsulfonyl)phenyl]-8-{[2-(trifluoromethyl)benzoyl]amino}-4,5-dihydro-1H-benzo[g]indazole-3-carboxamide]
- IC50 [6]: ≤ 1000 nM

SMILES: Cc1ccncc1C(=O)Nc1ccc2c(c1)-c1c(c(C(N)=O)nn1-c1ccc3c(c1)OCO3)CC2 [Example 187, 1-(1,3-benzodioxol-5-yl)-8-{[(4-methylpyridin-3-yl)carbonyl]amino}-4,5-dihydro-1H-benzo[g]indazole-3-carboxamide]
- IC50 (Table 4, read-out: IKK2 Resin IC50): ≤ 1000 nM

SMILES: NC(=O)c1nn(-c2cccc(O)c2)c2c1CCc1ccc(NC(=O)c3cccnc3Cl)cc1-2 [Example 284, 8-{[(2-chloropyridin-3-yl)carbonyl]amino}-1-(3-hydroxyphenyl)-4,5-dihydro-1H-benzo[g]indazole-3-carboxamide]
- IC50 [5]: ≤ 1000 nM

SMILES: CS(=O)(=O)c1ccc(C(=O)Nc2ccc3c(c2)-c2c(c(C(N)=O)nn2-c2ccc(F)cc2)CC3)c(Cl)c1 [Example 226, 8-{[2-chloro-4-(methylsulfonyl)benzoyl]amino}-1-(4-fluorophenyl)-4,5-dihydro-1H-benzo[g]indazole-3-carboxamide]
- IC50 [1]: ≤ 1000 nM

SMILES: CS(=O)(=O)c1ccc(-n2nc(C(N)=O)c3c2-c2cc(NC(=O)c4ccc(Cl)cc4N)ccc2CC3)cc1 [Example 117, 8-[(2-amino-4-chlorobenzoyl)amino]-1-[4-(methylsulfonyl)phenyl]-4,5-dihydro-1H-benzo[g]indazole-3-carboxamide]
- IC50 [6]: ≤ 1000 nM

SMILES: CSc1ccc(-n2nc(C(N)=O)c3c2-c2cc(NC(=O)c4ccncc4Cl)ccc2CC3)cc1 [Example 412, 8-[(3-chloroisonicotinoyl)amino]-1-[4-(methylthio)phenyl]-4,5-dihydro-1H-benzo[g]indazole-3-carboxamide hydrochloride]
- IC50 (Table 19, read-out: IKK2 Resin IC50): ≤ 1000 nM

SMILES: CSc1ccc(Cl)c(C(=O)Nc2ccc3c(c2)-c2c(c(C(N)=O)nn2-c2ccc(S(C)(=O)=O)cc2)CC3)c1 [Example 137, 8-{[2-chloro-5-(methylthio)benzoyl]amino}-1-[4-(methylsulfonyl)phenyl]-4,5-dihydro-1H-benzo[g]indazole-3-carboxamide]
- IC50 [2]: ≤ 1000 nM

SMILES: CS(=O)(=O)c1ccc(-n2nc(C(N)=O)c3c2-c2cc(NC(=O)c4ccccc4F)ccc2CC3)cc1 [Example 97, 8-[(2-fluorobenzoyl)amino]-1-[4-(methylsulfonyl)phenyl]-4,5-dihydro-1H-benzo[g]indazole-3-carboxamide]
- IC50 [6]: ≤ 1000 nM

SMILES: CNC(=O)/C=C/c1ccc(-n2nc(C(N)=O)c3c2-c2cc(NC(=O)c4cccnc4Cl)ccc2CC3)cc1 [Example 301, 8-{[(2-chloropyridin-3-yl)carbonyl]amino}-1-{4-[(1E)-3-(methylamino)-3-oxoprop-1-enyl]phenyl}-4,5-dihydro-1H-benzo[g]indazole-3-carboxamide]
- IC50 [4]: ≤ 1000 nM

SMILES: NC(=O)c1nn(-c2cccc(F)c2)c2c1CCc1ccc(NC(=O)c3cccnc3Cl)cc1-2 [Example 345, 8-{[(2-chloropyridin-3-yl)carbonyl]amino}-1-(3-fluorophenyl)-4,5-dihydro-1H-benzo[g]indazole-3-carboxamide]
- IC50 [3]: ≤ 1000 nM

SMILES: Cc1ccc(-n2nc(C(N)=O)c3c2-c2cc(NC(=O)c4ccccc4Cl)ccc2CC3)cc1 [Example 335, 8-[(2-chlorobenzoyl)amino]-1-(4-methylphenyl)-4,5-dihydro-1H-benzo[g]indazole-3-carboxamide]
- IC50 [3]: ≤ 1000 nM
